The record followed here is ChEMBL document CHEMBL4017490, “Design, Synthesis, and Pharmacological Evaluation of Novel Multisubstituted Pyridin-3-amine Derivatives as Multitargeted Protein Kinase Inhibitors for the Treatment of Non-Small Cell Lung Cancer” (J Med Chem, 2017).

Data set [1] is described as follows: MRT in CD-1 mouse at 20 mg/kg, po by LC-MS/MS method. The data set is classed as ADME, organism-based. The conditions noted are these: in vivo.
Data set [2] can be described thus: Cmax in CD-1 mouse at 20 mg/kg, po by LC-MS/MS method. The format is ADME, organism-based. Also on record: dose 20 mg/kg, route oral. Particulars: in vivo.
Data set [3] in a line: Half life in CD-1 mouse at 20 mg/kg, po by LC-MS/MS method. The data set is classed as ADME, organism-based. The conditions noted are these: in vivo.
The nature of data set [4]: Half life in Sprague-Dawley rat at 10 mg/kg, iv by LC-MS/MS method. The conditions noted are these: in vivo. The data set is classed as ADME, organism-based.
Data set [5] relates to NCI-H1581. The experiment in a line: Antitumor activity against human NCI-H1581 cells xenografted in nude mouse assessed as tumor growth inhibition at 5 mg/kg, po qd administered for 14 days measured twice per week during compound dosing. The data set is classed as functional. Particulars: 336 h, read-out: TGI.
Data set [6] concerns Mus musculus. Briefly: Toxicity in nude mouse xenografted with human NCI-H1581 cells assessed as emaciation at 20 mg/kg, po qd administered for 14 days. The format is organism-based. The conditions noted are these: in vivo, 336 h. On the technique in general: A xenograft is tissue or cells of one species grown in another, often human tumour cells in immunodeficient mice.
Data set [7] is described as follows: MRT in Sprague-Dawley rat at 20 mg/kg, po by LC-MS/MS method. The data set is classed as ADME, organism-based. Particulars: in vivo.
A short description of data set [8]: AUC (0 to infinity) in CD-1 mouse at 20 mg/kg, po by LC-MS/MS method. The format is ADME, organism-based. The conditions noted are these: in vivo. Also on record: dose 20 mg/kg, time infinity, route oral.
Data set [9] is described as follows: AUC (0 to t) in CD-1 mouse at 20 mg/kg, po by LC-MS/MS method. Particulars: in vivo. The data set is classed as ADME, organism-based.
Data set [10] in a line: Half life in Sprague-Dawley rat at 20 mg/kg, po by LC-MS/MS method. The data set is classed as ADME, organism-based. Particulars: in vivo.
Data set [11] can be described thus: Half life in CD-1 mouse at 5 mg/kg, iv by LC-MS/MS method. The format is ADME, organism-based. The conditions noted are these: in vivo.
The nature of data set [12]: AUC (0 to infinity) in Sprague-Dawley rat at 10 mg/kg, iv by LC-MS/MS method. Set-up: dose 10 mg/kg, time infinity, route intravenous. The conditions noted are these: in vivo. The format is ADME, organism-based.
The nature of data set [13]: AUC (0 to t) in CD-1 mouse at 5 mg/kg, iv by LC-MS/MS method. The data set is classed as ADME, organism-based. The conditions noted are these: in vivo.
Data set [14] can be described thus: Apparent clearance in Sprague-Dawley rat at 10 mg/kg, iv by LC-MS/MS method. The format is ADME, organism-based. The conditions noted are these: in vivo, read-out: CL(app) (converted).
Data set [15] in a line: AUC (0 to infinity) in CD-1 mouse at 5 mg/kg, iv by LC-MS/MS method. The data set is classed as ADME, organism-based. Set-up: dose 5 mg/kg, time infinity, route intravenous. Particulars: in vivo.
The test system of data set [16] is NCI-H1581. Briefly: Antitumor activity against human NCI-H1581 cells xenografted in nude mouse assessed as tumor growth inhibition at 20 mg/kg, po qd administered for 14 days measured twice per week during compound dosing. The data set is classed as functional. The conditions noted are these: 336 h, read-out: TGI.
Data set [17] is described as follows: AUC (0 to infinity) in Sprague-Dawley rat at 20 mg/kg, po by LC-MS/MS method. The format is ADME, organism-based. Set-up: dose 20 mg/kg, route oral, time infinity. The conditions noted are these: in vivo.
Data set [18] can be described thus: Tmax in Sprague-Dawley rat at 10 mg/kg, iv by LC-MS/MS method. The format is ADME, organism-based. The conditions noted are these: in vivo.
The nature of data set [19]: Cmax in Sprague-Dawley rat at 20 mg/kg, po by LC-MS/MS method. Particulars: in vivo. Also on record: dose 20 mg/kg, route oral. The format is ADME, organism-based.
The nature of data set [20]: Tmax in Sprague-Dawley rat at 20 mg/kg, po by LC-MS/MS method. The data set is classed as ADME, organism-based. Particulars: in vivo.
For data set [21], the system named is Mus musculus. The experiment in a line: Unbound Cmax in CD-1 mouse at 20 mg/kg, po by LC-MS/MS method. The format is ADME, organism-based. Particulars: in vivo.
Data set [22] has as its system NCI-H1581. Particulars: Homo sapiens.
Description: Antitumor activity against human NCI-H1581 cells xenografted in po dosed nude mouse assessed as tumor growth inhibition administered as qd for 14 days measured twice per week during compound dosing

Molecules are shown by their SMILES.

Take `Cc1n[nH]c2ccc(-c3cc(N[C@@H](CO)c4ccccc4)cnc3-c3cc(F)ccc3O)cc12`: the MRT (as a rule, the average time that molecules of a dose stay in the body) in [1] was determined as 3.59 h; in data set [7], 6.72 h. Besides, the Cmax (in general, the maximum level reached in the sampled fluid or tissue) in data set [2] amounted to 961 ng/mL; in data set [19], 2080 ng/mL. Moreover, the half-life (commonly how long it takes for the measured level to halve) in data set [3] was 2.72 h; in [4], 2.39 h; in data set [10], 8 h; in [11], 2.5 h. Besides, the inhibition in vivo at 5 mg/kg in the data set on NCI-H1581 [5] is 37.8%. Moreover, the Activity entry in the data set with Mus musculus [6] was “Toxic”. The AUC(0-inf) (commonly the area under the concentration-time curve extrapolated to infinity) in data set [8] stood at 2410 ng·h/mL; in data set [12], 13800 ng·h/mL; in data set [15], 290 ng·h/mL; in [17] it was 18700 ng·h/mL. Further, the AUC(0-t) – broadly, exposure summed from dosing to a finite time, without extrapolation to infinity – in data set [9] turned out to be 2400 ng·h/mL; in [13], 289 ng·h/mL. Further, the clearance in data set [14] is 12.1 mL/min/kg. Also, the inhibition in vivo at 20 mg/kg in the data set on NCI-H1581 [16] came to 66.1%. Further, the Tmax – broadly, the time from dosing to the highest level – in data set [18] was 0.25 h; in data set [20] it was 1 h. In the data set on Mus musculus [21], this compound gave a fCmax of 10.2 nM. The TGI result in the data set with NCI-H1581 [22] was “Dose-dependent effect”.
